# Reference: US8729122B2, “Pharmaceutical and nutraceutical compositions of abscisic acid” (Valent BioSciences Corporation, priority 2010, dated 2014)
# How the values were obtained:
# rats [1] = assay: 90-Day Oral Toxicity Study in Rodents (dietary S-ABA); assay type: in vivo; settings: for PROSTATE WEIGHT, mean: 90 days
# Description: Tests were conducted with (S)-(+)-abscisic acid in accordance with standard guidelines and procedures as evidenced by EPA Subchronic Toxicity Test Guidelines: 870.3050—Repeated Dose 28-Day Oral Toxicity Study in Rodents (July 2000); 870.3100—90-Day Oral Toxicity in Rodents (August 1998); 870.3650—Combined Repeated Dose Toxicity Study with the Reproduction/Developmental Toxicity Screening Test (July 2000); and 870.3200—21/28-Day Dermal Toxicity (August 1998), as well as Organization for Economic Co-operation and Development (OECD) Guidelines for the Testing of Chemicals including: Test No. 407: Repeated Dose 28-day Oral Toxicity Study in Rodents; Test No. 408: Repeated Dose 90-Day Oral Toxicity Study in Rodents; Test No. 416: Two-Generation Reproduction Toxicity; and Test No. 410: Repeated Dose Dermal Toxicity: 21/28-day Study.
# 90-Day Oral Toxicity Study in Rodents
# From the batch supplied (42 males and 42 females), 40 males and 40 females were assigned to the study. Animals were allocated to 4 dose groups and treated as follows:
# The animals were dosed by the dietary route 7 days/week for 13 consecutive weeks and up to immediately before terminal kill. Control animals received blank diet only. The concentration was constant throughout the treatment period. Detailed examinations were conducted on all animals during Weeks 4, 8 and 12. Histopathological evaluation of all tissues was undertaken for all animals in the Control and dose groups. Observations and testing results from this study can be seen in Tables 2, 4 and 5 below.
# In a 90 day toxicity study in rats, glucose and triglyceride levels were measured.
# rats [2] = assay: Two Generation Reproduction Toxicity Study (dietary S-ABA); assay type: in vivo
# Description: Two Generation Reproduction Toxicity Study
# This study was conducted to determine the potential adverse effects of the test substance on reproduction in a 2-generation study. This included determining the effects of the test substance on male and female reproductive processes, including gonadal function, estrous cyclicity, mating behavior, conception, gestation, parturition, lactation, weaning, and on growth and development of the offspring. A minimum of 1 litter was produced in each generation.
# Three groups of male and female were offered S-ABA, continuously in the diet for at least 70 consecutive days prior to mating. Target tests substance concentrations were 10,000, 15,000, and 20,000 ppm for the F0 and F1 generations. A concurrent control group of 30 rats/sex was offered the basal diet continuously throughout the study. F0 animals were approximately 7 weeks of age at the initiation of test diet administration. The test diet was administered to the offspring selected to become the F1 generation following weaning. The F0 and F1 males continued to receive the test substance throughout mating and continuing through the day prior to euthanasia. The F0 and F1 females continued to receive the test substance throughout mating, gestation, and lactation, and through the day of euthanasia. For both generations (F1 and F2), 8 pups per litter (4 per sex, when possible) were selected to reduce the variability among the litters. Offspring (30/sex/group, if possible) from the pairing of the F0 animals were selected to constitute the F1 generation.
# All animals were observed twice daily for appearance and behavior. Clinical observations, body weights, and food consumption were recorded at appropriate intervals for males throughout the study and for females prior to mating and during gestation and lactation. All F0 and F1 females were allowed to deliver and rear their pups until weaning on lactation day 21. Clinical observations, body weights, and sexes for F1 and F2 pups were recorded at appropriate intervals. Nonselected F1 pups and all surviving F2 pups were necropsied. Selected organs were weighed from 1 pup/sex/litter from F1 and F2 pups that were necropsied. Each surviving F0 and F1 parental animal received a complete detailed gross necropsy following the completion of weaning of the F1 and F2 pups, respectively; selected organs were weighed. Spermatogenic endpoints were recorded for all F0 and F1 males, and ovarian primordial follicle counts were recorded for all F0 and F1 females in the control and high-exposure groups and all F0 and F1 females suspected of reduced fertility. Designated tissues from all F0 and F1 parental animals were examined microscopically.
smiles,measurement,setting,value
"CC1=CC(=O)CC(C)(C)[C@@]1(O)/C=C/C(C)=C\C(=O)O [S-ABA, (S)-(+)-abscisic acid]","PROSTATE WEIGHT, mean","rats [1]; group 2, 2,000 ppm in diet",MEAN = 0.731 GRAMS
same,"PROSTATE WEIGHT, mean","rats [1]; group 3, 6,000 ppm in diet",MEAN = 0.908 GRAMS
same,"PROSTATE WEIGHT, mean","rats [1]; group 4, 20,000 ppm in diet",MEAN = 0.827 GRAMS
same,effect on triglyceride levels,"rats [1]; male and female rats, 2,000 ppm to 20,000 ppm",dose dependent decrease in triglyceride levels
same,"SPERM PRODUCTION RATE, mean","rats [2]; 10,000 PPM",10.3 MILLIONS/GRAM/DAY
same,Mean Live Offspring Born (per litter),"rats [2]; 10,000 ppm",12.3
same,Offspring Born,"rats [2]; 10,000 ppm",322
same,Offspring FOUND DEAD,"rats [2]; 10,000 ppm",4
same,"POSTNATAL SURVIVAL, BIRTH-4 (PRE-SELECT), mean","rats [2]; 10,000 ppm",98.6 % PER LITTER
same,"POSTNATAL SURVIVAL, POSTNATAL DAY 0 (RELATIVE TO # BORN), mean","rats [2]; 10,000 ppm",99.7 % PER LITTER
same,"POSTNATAL SURVIVAL, POSTNATAL DAY 0-1, mean","rats [2]; 10,000 ppm",100.0 % PER LITTER
same,"POSTNATAL SURVIVAL, POSTNATAL DAY 1-4 (PRE-SELECTION), mean","rats [2]; 10,000 ppm",98.9 % PER LITTER
same,"POSTNATAL SURVIVAL, POSTNATAL DAY 4 (POST-SELECT)-21, mean","rats [2]; 10,000 ppm",99.5 % PER LITTER
same,"POSTNATAL SURVIVAL, POSTNATAL DAY 4 (POST-SELECTION)-7, mean","rats [2]; 10,000 ppm",99.5 % PER LITTER
same,"POSTNATAL SURVIVAL, POSTNATAL DAY 7-14, mean","rats [2]; 10,000 ppm",100.0 % PER LITTER
same,"POSTNATAL SURVIVAL, POSTNATAL DAY 14-21, mean","rats [2]; 10,000 ppm",100.0 % PER LITTER
same,"OFFSPRING WEIGHT, mean","rats [2]; 10,000 ppm, female, postnatal day 1",6.6 grams
same,"OFFSPRING WEIGHT, mean","rats [2]; 10,000 ppm, female, postnatal day 4",9.1 grams
same,"OFFSPRING WEIGHT, mean","rats [2]; 10,000 ppm, female, postnatal day 7",14.3 grams
same,"OFFSPRING WEIGHT, mean","rats [2]; 10,000 ppm, female, postnatal day 14",29.9 grams
same,"OFFSPRING WEIGHT, mean","rats [2]; 10,000 ppm, female, postnatal day 21",45.5 grams
same,"OFFSPRING WEIGHT, mean","rats [2]; 10,000 ppm, male, postnatal day 1",7.1 grams
same,"OFFSPRING WEIGHT, mean","rats [2]; 10,000 ppm, male, postnatal day 4",9.7 grams
same,"OFFSPRING WEIGHT, mean","rats [2]; 10,000 ppm, male, postnatal day 7",15.2 grams
same,"OFFSPRING WEIGHT, mean","rats [2]; 10,000 ppm, male, postnatal day 14",30.9 grams
same,"OFFSPRING WEIGHT, mean","rats [2]; 10,000 ppm, male, postnatal day 21",47.9 grams
same,offspring mortality,"rats [2]; 10,000 ppm, control 4.57%",1.24%
same,"SPERM PRODUCTION RATE, mean","rats [2]; 15,000 PPM",10.7 MILLIONS/GRAM/DAY
same,Mean Live Offspring Born (per litter),"rats [2]; 15,000 ppm",13.1
same,Offspring Born,"rats [2]; 15,000 ppm",375
same,Offspring FOUND DEAD,"rats [2]; 15,000 ppm",15
same,"POSTNATAL SURVIVAL, BIRTH-4 (PRE-SELECT), mean","rats [2]; 15,000 ppm",93.2 % PER LITTER
same,"POSTNATAL SURVIVAL, POSTNATAL DAY 0 (RELATIVE TO # BORN), mean","rats [2]; 15,000 ppm",96.1 % PER LITTER
same,"POSTNATAL SURVIVAL, POSTNATAL DAY 0-1, mean","rats [2]; 15,000 ppm",98.5 % PER LITTER
same,"POSTNATAL SURVIVAL, POSTNATAL DAY 1-4 (PRE-SELECTION), mean","rats [2]; 15,000 ppm",98.5 % PER LITTER
same,"POSTNATAL SURVIVAL, POSTNATAL DAY 4 (POST-SELECT)-21, mean","rats [2]; 15,000 ppm",98.2 % PER LITTER
same,"POSTNATAL SURVIVAL, POSTNATAL DAY 4 (POST-SELECTION)-7, mean","rats [2]; 15,000 ppm",99.6 % PER LITTER
same,"POSTNATAL SURVIVAL, POSTNATAL DAY 7-14, mean","rats [2]; 15,000 ppm",98.7 % PER LITTER
same,"POSTNATAL SURVIVAL, POSTNATAL DAY 14-21, mean","rats [2]; 15,000 ppm",100.0 % PER LITTER
same,"OFFSPRING WEIGHT, mean","rats [2]; 15,000 ppm, female, postnatal day 1",6.6 grams
same,"OFFSPRING WEIGHT, mean","rats [2]; 15,000 ppm, female, postnatal day 4",8.8 grams
same,"OFFSPRING WEIGHT, mean","rats [2]; 15,000 ppm, female, postnatal day 7",14.0 grams
same,"OFFSPRING WEIGHT, mean","rats [2]; 15,000 ppm, female, postnatal day 14",29.8 grams
same,"OFFSPRING WEIGHT, mean","rats [2]; 15,000 ppm, female, postnatal day 21",45.8 grams
same,"OFFSPRING WEIGHT, mean","rats [2]; 15,000 ppm, male, postnatal day 1",6.9 grams
same,"OFFSPRING WEIGHT, mean","rats [2]; 15,000 ppm, male, postnatal day 4",9.3 grams
same,"OFFSPRING WEIGHT, mean","rats [2]; 15,000 ppm, male, postnatal day 7",14.7 grams
same,"OFFSPRING WEIGHT, mean","rats [2]; 15,000 ppm, male, postnatal day 14",30.8 grams
same,"OFFSPRING WEIGHT, mean","rats [2]; 15,000 ppm, male, postnatal day 21",47.8 grams
same,"SPERM PRODUCTION RATE, mean","rats [2]; 20,000 PPM",10.5 MILLIONS/GRAM/DAY
same,Mean Live Offspring Born (per litter),"rats [2]; 20,000 ppm",12.3
same,Offspring Born,"rats [2]; 20,000 ppm",327
same,Offspring FOUND DEAD,"rats [2]; 20,000 ppm",11
